Source: PubChem BioAssay (NCI)
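Values below derive from 48-hour exposures of cells grown in 96-well plates, with endpoints linearly interpolated between the two concentrations bracketing the appropriate inhibition level. Here, GI50 denotes the concentration required for 50% inhibition of growth. TGI: concentration producing complete growth inhibition.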

Tests used:
Assay in all cases: NCI tumour cell line growth inhibition, 48 h
HCT-116 colon = tested on: HCT-116 colon
COLO 205 colon = tested on: COLO 205 colon
HCC-2998 colon = tested on: HCC-2998 colon
RXF 393 renal = tested on: RXF 393 renal
EKVX NSCLC = tested on: EKVX NSCLC
SR leukemia = tested on: SR leukemia
KM12 colon = tested on: KM12 colon
IGROV1 ovarian = tested on: IGROV1 ovarian
LOX IMVI melanoma = tested on: LOX IMVI melanoma
OVCAR-8 ovarian = tested on: OVCAR-8 ovarian
MDA-MB-231 breast = tested on: MDA-MB-231 breast
HL-60(TB) leukemia = tested on: HL-60(TB) leukemia
HOP-62 NSCLC = tested on: HOP-62 NSCLC
MOLT-4 leukemia = tested on: MOLT-4 leukemia
MDA-MB-435 = tested on: MDA-MB-435
SF-539 CNS = tested on: SF-539 CNS
T-47D breast = tested on: T-47D breast
MCF7 breast = tested on: MCF7 breast
OVCAR-4 ovarian = tested on: OVCAR-4 ovarian
SNB-19 CNS = tested on: SNB-19 CNS
SW-620 colon = tested on: SW-620 colon
SN12C renal = tested on: SN12C renal
CCRF-CEM leukemia = tested on: CCRF-CEM leukemia
SK-MEL-28 melanoma = tested on: SK-MEL-28 melanoma
SK-MEL-5 melanoma = tested on: SK-MEL-5 melanoma
HT29 colon = tested on: HT29 colon
M14 melanoma = tested on: M14 melanoma
U251 CNS = tested on: U251 CNS
K-562 leukemia = tested on: K-562 leukemia
BT-549 breast = tested on: BT-549 breast
DU-145 prostate = tested on: DU-145 prostate
HOP-92 NSCLC = tested on: HOP-92 NSCLC
ACHN renal = tested on: ACHN renal
UACC-257 melanoma = tested on: UACC-257 melanoma
SNB-75 CNS = tested on: SNB-75 CNS
NCI-H23 lung = tested on: NCI-H23 lung
HCT-15 colon = tested on: HCT-15 colon
NCI-H522 lung = tested on: NCI-H522 lung
NCI-H460 lung = tested on: NCI-H460 lung
SF-295 CNS = tested on: SF-295 CNS
UO-31 renal = tested on: UO-31 renal
RPMI-8226 leukemia = tested on: RPMI-8226 leukemia
SF-268 CNS = tested on: SF-268 CNS
TK-10 renal = tested on: TK-10 renal
MALME-3M melanoma = tested on: MALME-3M melanoma
SK-OV-3 ovarian = tested on: SK-OV-3 ovarian
CAKI-1 renal = tested on: CAKI-1 renal
OVCAR-5 ovarian = tested on: OVCAR-5 ovarian
A498 renal = tested on: A498 renal
SK-MEL-2 melanoma = tested on: SK-MEL-2 melanoma
A549 NSCLC = tested on: A549 NSCLC
UACC-62 melanoma = tested on: UACC-62 melanoma
NCI/ADR-RES ovarian = tested on: NCI/ADR-RES ovarian
HS 578T breast = tested on: HS 578T breast
786-0 renal = tested on: 786-0 renal
PC-3 prostate = tested on: PC-3 prostate
NCI-H226 lung = tested on: NCI-H226 lung

`CCCCCCNC(=O)Oc1ccc(/C(=C(\C)c2ccc(Cl)cc2)c2ccc(OCCN(C)C)cc2)cc1` gave a GI50 (HCT-116 colon) of 1530 nM, a TGI (HCT-116 colon) of 3000 nM and a GI50 (COLO 205 colon) of 1680 nM. It also gave a TGI (COLO 205 colon) of 3.1 µM, a GI50 (HCC-2998 colon) of 2060 nM and a TGI (HCC-2998 colon) of 4.29 µM. The GI50 (RXF 393 renal) was 1330 nM, the TGI (RXF 393 renal) was 2720 nM and the GI50 (EKVX NSCLC) was 3.83 µM. For the same compound, the TGI (EKVX NSCLC) was 16.5 µM, the GI50 (SR leukemia) was 1680 nM and the TGI (SR leukemia) was 4.1 µM. The GI50 (KM12 colon) was 1870 nM, the TGI (KM12 colon) was 3.61 µM and the GI50 (IGROV1 ovarian) was 1810 nM. The TGI (IGROV1 ovarian) was 3.57 µM, the GI50 (LOX IMVI melanoma) was 1630 nM and the TGI (LOX IMVI melanoma) was 2990 nM. The GI50 (OVCAR-8 ovarian) was 1600 nM, the TGI (OVCAR-8 ovarian) was 3.1 µM and the GI50 (MDA-MB-231 breast) was 1770 nM. For the same compound, the TGI (MDA-MB-231 breast) was 3.38 µM, the GI50 (HL-60(TB) leukemia) was 1620 nM and the TGI (HL-60(TB) leukemia) was 4.3 µM. It also gave a GI50 (HOP-62 NSCLC) of 1630 nM, a TGI (HOP-62 NSCLC) of 3.18 µM and a GI50 (MOLT-4 leukemia) of 1930 nM. It also gave a TGI (MOLT-4 leukemia) of 5.27 µM, a GI50 (MDA-MB-435) of 1720 nM and a TGI (MDA-MB-435) of 3.24 µM. It also gave a GI50 (SF-539 CNS) of 1740 nM, a TGI (SF-539 CNS) of 3.12 µM and a GI50 (T-47D breast) of 1450 nM. The TGI (T-47D breast) was 4.12 µM, the GI50 (MCF7 breast) was 216 nM and the TGI (MCF7 breast) was 2190 nM. The GI50 (OVCAR-4 ovarian) was 1940 nM, the TGI (OVCAR-4 ovarian) was 4.65 µM and the GI50 (SNB-19 CNS) was 3.31 µM. The TGI (SNB-19 CNS) was 12.4 µM, the GI50 (SW-620 colon) was 1600 nM and the TGI (SW-620 colon) was 3.03 µM. The GI50 (SN12C renal) was 1680 nM, the TGI (SN12C renal) was 3.22 µM and the GI50 (CCRF-CEM leukemia) was 1890 nM. It also gave a TGI (CCRF-CEM leukemia) of 5.64 µM, a GI50 (SK-MEL-28 melanoma) of 1780 nM and a TGI (SK-MEL-28 melanoma) of 3.26 µM. It also gave a GI50 (SK-MEL-5 melanoma) of 1770 nM, a TGI (SK-MEL-5 melanoma) of 3.25 µM and a GI50 (HT29 colon) of 1710 nM. The TGI (HT29 colon) was 3.37 µM, the GI50 (M14 melanoma) was 1690 nM and the TGI (M14 melanoma) was 3.19 µM. The GI50 (U251 CNS) was 1590 nM, the TGI (U251 CNS) was 3.04 µM and the GI50 (K-562 leukemia) was 1660 nM. It also gave a TGI (K-562 leukemia) of 7.21 µM, a GI50 (BT-549 breast) of 2880 nM and a TGI (BT-549 breast) of 9.2 µM. The GI50 (DU-145 prostate) was 2020 nM, the TGI (DU-145 prostate) was 3.92 µM and the GI50 (HOP-92 NSCLC) was 1020 nM. The TGI (HOP-92 NSCLC) was 2220 nM, the GI50 (ACHN renal) was 1880 nM and the TGI (ACHN renal) was 3.77 µM. It also gave a GI50 (UACC-257 melanoma) of 1760 nM, a TGI (UACC-257 melanoma) of 3.28 µM and a GI50 (SNB-75 CNS) of 1690 nM. It also gave a TGI (SNB-75 CNS) of 7.12 µM, a GI50 (NCI-H23 lung) of 2240 nM and a TGI (NCI-H23 lung) of 5.71 µM. For the same compound, the GI50 (HCT-15 colon) was 1720 nM, the TGI (HCT-15 colon) was 3.3 µM and the GI50 (NCI-H522 lung) was 1780 nM. For the same compound, the TGI (NCI-H522 lung) was 3.42 µM, the GI50 (NCI-H460 lung) was 1700 nM and the TGI (NCI-H460 lung) was 3.12 µM. For the same compound, the GI50 (SF-295 CNS) was 1750 nM, the TGI (SF-295 CNS) was 3.2 µM and the GI50 (UO-31 renal) was 1310 nM. The TGI (UO-31 renal) was 2770 nM, the GI50 (RPMI-8226 leukemia) was 1900 nM and the TGI (RPMI-8226 leukemia) was 4.3 µM. The GI50 (SF-268 CNS) was 2390 nM, the TGI (SF-268 CNS) was 7.63 µM and the GI50 (TK-10 renal) was 1840 nM. For the same compound, the TGI (TK-10 renal) was 4.08 µM, the GI50 (MALME-3M melanoma) was 1720 nM and the TGI (MALME-3M melanoma) was 3.26 µM. It also gave a GI50 (SK-OV-3 ovarian) of 2220 nM, a TGI (SK-OV-3 ovarian) of 6.92 µM and a GI50 (CAKI-1 renal) of 1330 nM. For the same compound, the TGI (CAKI-1 renal) was 2650 nM, the GI50 (OVCAR-5 ovarian) was 4.26 µM and the TGI (OVCAR-5 ovarian) was 17.1 µM. It also gave a GI50 (A498 renal) of 2690 nM, a TGI (A498 renal) of 12.1 µM and a GI50 (SK-MEL-2 melanoma) of 1870 nM. It also gave a TGI (SK-MEL-2 melanoma) of 3.8 µM, a GI50 (A549 NSCLC) of 1630 nM and a TGI (A549 NSCLC) of 3.13 µM. It also gave a GI50 (UACC-62 melanoma) of 1720 nM, a TGI (UACC-62 melanoma) of 3.32 µM and a GI50 (NCI/ADR-RES ovarian) of 3.12 µM. It also gave a TGI (NCI/ADR-RES ovarian) of 11.8 µM, a GI50 (HS 578T breast) of 1550 nM and a TGI (HS 578T breast) of 3.53 µM. For the same compound, the GI50 (786-0 renal) was 1740 nM, the TGI (786-0 renal) was 3.27 µM and the GI50 (PC-3 prostate) was 1440 nM. The TGI (PC-3 prostate) was 2840 nM, the GI50 (NCI-H226 lung) was 4.26 µM and the TGI (NCI-H226 lung) was 18.1 µM.
